# Source: patent publication US5646180A (priority 1995, dated 1997)
# Like-named read-outs stand apart in the source and are kept apart here.
# What was measured:
# [1] = cited from earlier work
# HIV-1 protease = test: ligand for / inhibition of HIV-1 protease; assay type: biochemical
# oral availability = assay type: in vivo; details: oral administration, mammals
# [2] = From the text: […]. The potential of this compound to be delivered at doses far exceeding its effective antiviral level is advantageous in slowing or preventing the possibility of resistant variants developing.
# HIV = assay type: cell-based
# HIV-1 virus = test: HIV-1 infection of immortalized human T cells, assay of extracellular p24 antigen; assay type: cell-based; details: over a period of days
# From the text: Accordingly, the compound is capable of targeting and inhibiting late stage events in HIV replication, i.e., the processing of the viral polyproteins by HIV encoded proteases. […] Because aspartyl protease is essential for the production of mature virions, inhibition of that processing effectively blocks the spread of virus by inhibiting the production of infectious virions, particularly from chronically infected cells. […] Other anti-viral assays have confirmed the potency of this compound.
# HIV-2 protease = test: ligand for / inhibition of HIV-2 protease; assay type: biochemical
# aqueous solubility = assay type: physicochemical; details: water
# [3] = prior-art HIV drugs, background statement, nucleosides compared with AZT
compound,measurement,setting,value
CC(C)c1nc(CN(C)C(=O)N[C@H](C(=O)N[C@@H](Cc2ccccc2)C[C@H](O)[C@H](Cc2ccccc2)NC(=O)OCc2cncs2)C(C)C)cs1 [ABT 538],CNS distribution / CNS penetration (in words),[1]; in vivo,very limited CNS penetration
CC(C)CN(CC(O)C(Cc1ccccc1)NC(=O)OC1CCOC1)S(=O)(=O)c1ccc(N)cc1 (stereo not shown) [Compound I],ligand for HIV-1 protease (in words),HIV-1 protease,excellent ligand
same,oral availability (in words),oral availability,surprisingly impressive oral availability
same,therapeutic index (in words),[2],impressively high therapeutic index
same,combination effect in preventing the replication of HIV in human T cells (in words),HIV,acts in an additive or synergistical manner
same,inhibition of the ability of HIV-1 to infect immortalized human T cells (in words),HIV-1 virus,inhibits the ability of the HIV-1 virus to infect immortalized human T cells
same,ligand for HIV-2 protease (in words),HIV-2 protease,excellent ligand
same,solubility,aqueous solubility,≥ 100 µg/mL
CC(C)(C)NC(=O)[C@@H]1CN(Cc2cccnc2)CCN1C[C@@H](O)C[C@@H](Cc1ccccc1)C(=O)N[C@H]1c2ccccc2C[C@H]1O [Compound L-535524],CNS distribution / CNS penetration (in words),[1]; [3],about the same distribution
Cc1cn([C@H]2C=C[C@@H](CO)O2)c(=O)[nH]c1=O [d4T],CNS distribution / CNS penetration (in words),[1]; [3],even worse distribution profiles in the CNS
